Measurements: EPA's ToxRefDB 2

Legend:
[1] = test system: rat; settings: Prenatal developmental toxicity study, wistar, Oral, Gavage/Intubation, dose end: 15 GD
[2] = test system: rat; settings: Combined chronic toxicity/carcinogenicity; wistar; Oral; Feed; dose end: 2 year; group: systemic; systemic / clinical chemistry / alanine aminotransferase (alt/sgpt) / alanine aminotransferase (alt/sgpt) + systemic / clinical chemistry / …
[3] = test system: mouse; settings: Carcinogenicity, b6c3f1, Oral, Feed, dose end: 2 year, group: systemic
[4] = test system: dog; settings: Chronic toxicity; beagle; Oral; Feed; dose end: 52 week; group: systemic; systemic / clinical chemistry / cholesterol / cholesterol + systemic / clinical chemistry / creatinine / creatinine + systemic / clinical …
[5] = test system: dog; settings: Subchronic oral toxicity in nonrodent, beagle, [Not Specified], dose end: 4 week, group: systemic, systemic / clinical chemistry / alanine aminotransferase (alt/sgpt) / alanine aminotransferase (alt/sgpt) + systemic / clinical chemistry / …
[6] = test system: dog; settings: Subchronic oral toxicity in nonrodent, beagle, Feed, dose end: 90 day, group: systemic
[7] = test system: dog; settings: Chronic toxicity, beagle, Oral, Feed, dose end: 12 month, group: systemic
[8] = test system: rat; settings: Subchronic oral toxicity in rodents, wistar, Feed, dose end: 91 day, group: systemic, systemic / clinical chemistry / alanine aminotransferase (alt/sgpt) / alanine aminotransferase (alt/sgpt) + systemic / clinical chemistry / …
[9] = test system: rat; settings: Subchronic oral toxicity in rodents, wistar, Feed, dose end: 90 day, group: systemic
[10] = test system: rat; settings: Combined chronic toxicity/carcinogenicity, other, Oral, Feed, dose end: 104 week, group: systemic
[11] = test system: dog; settings: Subchronic oral toxicity in nonrodent, beagle, Feed, dose end: 13 week, group: systemic
[12] = test system: rat; settings: Multigenerational reproductive toxicity study, sprague dawley, Oral, Feed, dose end: 2 generation
[13] = test system: rat; settings: Subchronic oral toxicity in rodents, other, Feed, dose end: 90 day, group: systemic
[14] = test system: rat; settings: Combined chronic toxicity/carcinogenicity, other, Oral, Feed, dose end: 25 month, group: systemic
[15] = test system: dog; settings: Chronic toxicity, beagle, Oral, Feed, dose end: 52 week, group: systemic
[16] = test system: mouse; settings: Carcinogenicity; cd1; Oral; Feed; dose end: 104 week; group: systemic; systemic / pathology gross / liver / mass + systemic / pathology gross / liver / nodule(s) + systemic / pathology microscopic / liver / …
[17] = test system: rat; settings: Prenatal developmental toxicity study, other, Oral, Gavage/Intubation, dose end: 16 GD
[18] = test system: rabbit; settings: Prenatal developmental toxicity study, new zealand white, Oral, Gavage/Intubation, dose end: 28 GD
[19] = group: developmental, developmental / developmental malformation / bone / incomplete ossification + developmental / developmental malformation / bone / …
[20] = group: maternal, systemic / in life observation / body weight / body weight gain + systemic / in life observation / food consumption / food consumption + …
[21] = systemic / clinical chemistry / [other] / [other]
[22] = systemic / clinical chemistry / [other] / [other] + systemic / clinical chemistry / alanine aminotransferase (alt/sgpt) / alanine …
[23] = systemic / clinical chemistry / cholesterol / cholesterol + systemic / clinical chemistry / creatinine / creatinine + systemic / clinical …
[24] = systemic / pathology microscopic / pituitary gland / cyst
[25] = systemic / hematology / blood clotting / blood clotting - clotting time + systemic / organ weight / kidney / absolute + systemic / organ …
[26] = systemic / in life observation / body weight / body weight + systemic / in life observation / food consumption / food efficiency
[27] = systemic / in life observation / body weight / body weight + systemic / in life observation / food consumption / food efficiency + systemic…
[28] = systemic / organ weight / liver / absolute
[29] = group: offspring, systemic / in life observation / body weight / offspring (pup) weight
[30] = group: parental, systemic / in life observation / body weight / body weight + systemic / in life observation / body weight / body weight gain
[31] = systemic / clinical chemistry / alkaline phosphatase (alp/alk) / alkaline phosphatase (alp/alk) + systemic / pathology microscopic / liver…
[32] = group: developmental, developmental / developmental malformation / bone / misaligned + developmental / developmental malformation / kidney / absent renal papilla…
[33] = group: developmental, systemic / in life observation / body weight / fetal weight
[34] = group: maternal, reproductive / reproductive performance / aborted / aborted + systemic / in life observation / body weight / body weight gain + systemic / …

For Cc1cc(Cl)ccc1OCC(=O)O [MCPA], the LEL [1, 19] was 120 mg/kg/day, the LOAEL [1, 19] was 120 mg/kg/day and the NEL [1, 19] was 60 mg/kg/day. It also gave an NOAEL [1, 19] of 60 mg/kg/day, an LEL [1, 20] of 120 mg/kg/day and an LOAEL [1, 20] of 120 mg/kg/day. The NEL [1, 20] was 60 mg/kg/day, the NOAEL [1, 20] was 60 mg/kg/day and the LEL [2] was 5.7 mg/kg/day. It also gave an LOAEL [2] of 5.7 mg/kg/day, an NEL [2] of 1.4 mg/kg/day and an NOAEL [2] of 1.4 mg/kg/day. It also gave an LEL ([3]; systemic / in life observation / body weight / body weight) of 15.7 mg/kg/day, an NEL ([3]; systemic / in life observation / body weight / body weight + systemic / pathology microscopic / kidney / casts protein + systemic / …) of 3.2 mg/kg/day and an LOAEL ([3]; systemic / pathology microscopic / kidney / hyperplasia) of 19.5 mg/kg/day. It also gave an NOAEL ([3]; systemic / pathology microscopic / kidney / hyperplasia + systemic / in life observation / body weight / body weight + systemic / organ …) of 3.9 mg/kg/day, an LEL [4] of 1.02 mg/kg/day and an LOAEL [4] of 1.02 mg/kg/day. The NEL [4] was 0.21 mg/kg/day, the NOAEL [4] was 0.21 mg/kg/day and the LEL [5] was 8 mg/kg/day. For the same molecule, the LOAEL [5] was 8 mg/kg/day, the NEL [5] was less than 8 mg/kg/day and the NOAEL [5] was less than 8 mg/kg/day. The LEL [6, 21] was 3 mg/kg/day, the LOAEL [6, 21] was 3 mg/kg/day and the NEL [6, 22] was 1 mg/kg/day. For the same molecule, the NOAEL [6, 22] was 1 mg/kg/day, the LOAEL [7, 23] was 1.02 mg/kg/day and the NOAEL [7, 23] was 0.21 mg/kg/day. For the same molecule, the LEL [7, 24] was 0.2 mg/kg/day, the NEL [7, 24] was less than 0.2 mg/kg/day and the LEL [8] was 177 mg/kg/day. The LOAEL [8] was 177 mg/kg/day, the NEL [8] was 34 mg/kg/day and the NOAEL [8] was 34 mg/kg/day. It also gave an LOAEL [9, 25] of 32.6 mg/kg/day, an NEL [9, 25] of 3.6 mg/kg/day and an NOAEL [9, 25] of 10.9 mg/kg/day. It also gave an LEL ([9]; systemic / organ weight / kidney / absolute) of 10.9 mg/kg/day.
Work on CN(C)c1nc(=O)n(C2CCCCC2)c(=O)n1C [Hexazinone] yielded an LOAEL [10, 26] of 50 mg/kg/day, an LEL [10, 27] of 50 mg/kg/day and an NEL [10, 27] of 10 mg/kg/day. It also gave an NOAEL [10, 27] of 10 mg/kg/day, an LOAEL ([11]; systemic / clinical chemistry / alkaline phosphatase (alp/alk) / alkaline phosphatase (alp/alk) + systemic / in life observation / body …) of 122 mg/kg/day and an LEL [11, 28] of 5.1 mg/kg/day. For the same molecule, the NEL [11, 28] was less than 5.1 mg/kg/day, the NOAEL ([11]; systemic / organ weight / liver / absolute + systemic / clinical chemistry / alkaline phosphatase (alp/alk) / alkaline phosphatase (alp/alk…) was 25.9 mg/kg/day and the LEL [12, 29] was 154 mg/kg/day. The LOAEL [12, 29] was 180 mg/kg/day, the NEL [12, 29] was 15.3 mg/kg/day and the NOAEL [12, 29] was 17.7 mg/kg/day. It also gave an LEL [12, 30] of 143 mg/kg/day, an LOAEL [12, 30] of 143 mg/kg/day and an NEL [12, 30] of 14.3 mg/kg/day. It also gave an NOAEL [12, 30] of 14.3 mg/kg/day, an LOAEL [13, 26] of 440 mg/kg/day and an LEL [13, 27] of 440 mg/kg/day. The NEL [13, 27] was 81 mg/kg/day, the NOAEL [13, 27] was 81 mg/kg/day and the LOAEL [14, 26] was 53.4 mg/kg/day. It also gave an LEL [14, 27] of 53.4 mg/kg/day, an NEL [14, 27] of 10.2 mg/kg/day and an NOAEL [14, 27] of 10.2 mg/kg/day. The LOAEL [15, 31] was 37.6 mg/kg/day, the NEL [15, 31] was 4.97 mg/kg/day and the NOAEL [15, 31] was 4.97 mg/kg/day. The LEL ([15]; systemic / pathology microscopic / liver / lesion(s) (nos) + systemic / pathology microscopic / liver / pigmentation) was 37.6 mg/kg/day, the LEL [16] was 366 mg/kg/day and the LOAEL [16] was 366 mg/kg/day. For the same molecule, the NEL [16] was 28 mg/kg/day, the NOAEL [16] was 28 mg/kg/day and the LEL [17, 32] was 900 mg/kg/day. It also gave an LOAEL [17, 32] of 900 mg/kg/day, an NEL [17, 32] of 400 mg/kg/day and an NOAEL [17, 32] of 400 mg/kg/day. For the same molecule, the LOAEL ([17]; group: maternal, systemic / in life observation / body weight / body weight gain + systemic / in life observation / food consumption / food consumption) was 400 mg/kg/day, the LEL [17, 20] was 400 mg/kg/day and the NEL [17, 20] was 100 mg/kg/day. For the same molecule, the NOAEL [17, 20] was 100 mg/kg/day, the LEL [18, 33] was 125 mg/kg/day and the LOAEL [18, 33] was 125 mg/kg/day. The NEL [18, 33] was 50 mg/kg/day, the NOAEL [18, 33] was 50 mg/kg/day and the LEL [18, 34] was 125 mg/kg/day. For the same molecule, the LOAEL [18, 34] was 125 mg/kg/day, the NEL [18, 34] was 50 mg/kg/day and the NOAEL [18, 34] was 50 mg/kg/day.
